Source: patent US4434290A, “Pyrido (4,3-B) carbazoles substituted in the 1 position by a polyamine chain” (priority 1978, dated 1984)
Several values for one entry are separate records, joined by “and”; a condition that tells them apart may be missing. Identical values can stand only once.

How the values were obtained:
leukemia L1210 [1] = assay: Leukemia L1210 in vivo, dose/effect relationship (Table XIV); design: species or system mice; conditions: for Death interval / ILS % / Mean survival time: 10^5 cells; for Death interval / ILS % / Mean survival time / Surviving mice: D+1; for Surviving mice: groups of six mice
Procedure: The properties were determined by the curative action inoculated experimental leukemia L1210. This leukemia was maintained on B6 D2 Fl (C 57 Bl/6×DBA/2) Fl mice in the proportion of 6 or 10 mice per experimental batch. The compounds to be tested were injected by the intraperitoneal route one or several days after inoculation of the cells (1 injection only). The death interval was determined, the first figure of the Table indicating the date of the first mouse death and the second the date of the last mouse death. The mean survival time was also measured (MST). A characteristic value is the percentage of increased life span (ILS %). This value (Cancer. Res. 1971, 31, 1883-1887) is the ratio: [formula] where S^t =survival of treated animals and
The study was carried out on experimental groups of six mice by the previously defined method. 10^5 cells were injected at day Do. […] The death interval was determined, the mean survival time was measured (MST) and the percentage of increased life span was calculated (ILS %) by the above-defined formula.

Friend's virus (VFA) = assay: Anemia inducing Friend's virus, measurement of survival time (Table XVIII); assay type: in vivo, mice; conditions: 15 mg/kg; for Death interval / Mean survival time / ILS %: D+1
Text: (§1) The following experiments related to the treatment of mice inoculated by the virus of Friend's leukemia.
(§2) In these experiments DBA2, male mice, aged from 2 to 3 months, of weight around 20 g, were used.
(§3) An anemia inducing strain of Friend's virus (VFA) maintained for several years in the laboratory was used. The viral stock was constituted by an acellular supernatant liquor obtained by the centrifugation of a ground product of leukemic spleens, carried out in an 0.5 M PBS-saccharose solution. The assay of the stock was done in vivo by the method described by JASMIN et al [J. Nat. Cancer Inst. 1974,53, 469-474]. The measurement is expressed in SD50 (50% spleen enlarging dose).
In another series of tests, the mortality of the mice, in which the Friend's virus was injected (VFA) by the intraperitoneal route (dilution 1/800) and the death intervalwere determined, the mean survival time and the percentage of increased life span for the compound 27 according to the invention inoculated on day D+1 at the dose of 15 mg/kg were calculated.

L1210 cells = assay: In vitro cytotoxic study on leukemia L1210 cells, complete inhibition of growth (Table XVI); assay type: cell-based
Procedure: Cytotoxic "in vitro" study on hamster cells on leukemia L1210 cells of the serie.
After 5 hours, the cells were attached to a plastic support and the products to be tested whose solutions had been formed in water or in DMSO (dimethylsulphoxide) if the product was little soluble in water, was added. In the latter case a control was carried out with the same final concentration of DMSO in the culture medium.
The state of the cells was examined 24, 48 and 72 hours later.
In the case of the L1210 cells, the tests were carried out in a medium gelled with agarose, the L1210 cells growing in suspension.

[2] = tested on: virus of Friend's leukemia (VFA); assay: Friend's leukemia, measurement of splenomegaly (Table XVII); assay type: in vivo, DBA2 male mice; conditions: for Mean weight of the spleen: 10 mg/kg (0.2 mg/mouse), day +15; for Mean weight of the spleen / Number of leukemic mice: D + 1; for Number of leukemic mice: 10 mg/kg, spleen >250 mg
Text: as §1, §2, §3
The Friend virus was injected in the mouse by the intraperitoneal route. […] The spleens were removed and then weighed individually.

leukemia L1210 [3] = assay: Leukemia L1210 in vivo, measurement of survival time (Table XII); design: species or system B6 D2 Fl (C 57 Bl/6×DBA/2) Fl mice; MST: unit not given here; conditions: for Death interval (mice) / ILS % / MST / Surviving mice: i.p.
Procedure: The following pharmacological trials relate to the effects of the compounds of the invention on leukemia L1210 in vivo.
G. Proc. Nat. Acad. Sci. 1972, 69, 1042-1047 and Schepartz S., Screening 1971, Cancer Chemother. Part 3; Vol. 2, p. 3].
The properties were determined by the curative action inoculated experimental leukemia L1210. This leukemia was maintained on B6 D2 Fl (C 57 Bl/6×DBA/2) Fl mice in the proportion of 6 or 10 mice per experimental batch. The compounds to be tested were injected by the intraperitoneal route one or several days after inoculation of the cells (1 injection only). […] The death interval was determined, the first figure of the Table indicating the date of the first mouse death and the second the date of the last mouse death. The mean survival time was also measured (MST). A characteristic value is the percentage of increased life span (ILS %). This value (Cancer. Res. 1971, 31, 1883-1887) is the ratio: [formula] where S^t =survival of treated animals and
S^c =survival of control animals.

leukemia L1210 [4] = assay: Leukemia L1210 in vivo, effect of the day of inoculation (Table XIII); design: species or system mice; conditions: 15 mg/kg; for Death interval / ILS % / Mean survival time: 10^5 cells; for Surviving mice: groups of 6 mice
Procedure: The properties were determined by the curative action inoculated experimental leukemia L1210. This leukemia was maintained on B6 D2 Fl (C 57 Bl/6×DBA/2) Fl mice in the proportion of 6 or 10 mice per experimental batch. The compounds to be tested were injected by the intraperitoneal route one or several days after inoculation of the cells (1 injection only). The death interval was determined, the first figure of the Table indicating the date of the first mouse death and the second the date of the last mouse death. The mean survival time was also measured (MST). A characteristic value is the percentage of increased life span (ILS %).
As in the above test the death interval was determined, the mean survival time (MST) was measured and the percentage of increased life span (ILS %) was calculated.

[5] = VFA 1/800, % of leukemias = 99.8
[6] = VFA 1/800, % of leukemias = 100%
[7] = experimental group of six mice, 15 mg/kg, day +1, 15 mg/kg
[8] = experimental group of six mice, 20 mg/kg, day +1

CCN(CC)CCCNc1nccc2c(C)c3[nH]c4ccc(OC)cc4c3c(C)c12 [Compound 27]
dose/effect relationship (leukemia L1210 [1]; 5-20 mg/kg, day D+1): proportional to the dose inoculated
Death interval (leukemia L1210 [1]; 5 mg/kg): 16-24
ILS % (leukemia L1210 [1]; 5 mg/kg): 80.4%
Mean survival time (leukemia L1210 [1]; 5 mg/kg): 19.3
Death interval (leukemia L1210 [1]; 10 mg/kg): 14-21
ILS % (leukemia L1210 [1]; 10 mg/kg): 57%
Mean survival time (leukemia L1210 [1]; 10 mg/kg): 16.8
Death interval (leukemia L1210 [1]; 15 mg/kg): 13-31
ILS % (leukemia L1210 [1]; 15 mg/kg): 96.3%
Mean survival time (leukemia L1210 [1]; 15 mg/kg): 21
Death interval (leukemia L1210 [1]; 20 mg/kg): 15-25
ILS % (leukemia L1210 [1]; 20 mg/kg): 75.7%
Mean survival time (leukemia L1210 [1]; 20 mg/kg): 18.8
Surviving mice (leukemia L1210 [1]; 5 mg/kg): 0 mice
Surviving mice (leukemia L1210 [1]; 10 mg/kg): 0 mice
Surviving mice (leukemia L1210 [1]; 15 mg/kg): 0 mice
Surviving mice (leukemia L1210 [1]; 20 mg/kg): 1 mice
Death interval (Friend's virus (VFA); [5]): 20-64
Mean survival time (Friend's virus (VFA); [5]): 42.2
ILS % (Friend's virus (VFA); VFA 1/800, % of leukemias = 99.8, on the surviving mice): 40%
Survive (Friend's virus (VFA); VFA 1/800, % of leukemias = 99.8, group of 10 mice): 0
Death interval (Friend's virus (VFA); [6]): 48-72
ILS % (Friend's virus (VFA); [6]): 143.85%
Mean survival time (Friend's virus (VFA); [6]): 59.5
IC (100 (complete growth inhibition, minimal)) (L1210 cells; Mus musculus, L1210, medium gelled with agarose, read-out: Minimal dose leading to a complete inhibition of the growth): 0.6 µM
activity compared with the reference BD40 (L1210 cells; summary of Table XVI): almost as active as the reference dipyrido-indole (BD40)
protective power on Friend's leukemia ([2]; mouse, in vivo): has a protective power on Friend's leukemia
Mean weight of the spleen ([2]; virus dilution 1/800): 183 mg
Number of leukemic mice ([2]; virus dilution 1/800): 2/10
Mean weight of the spleen ([2]; virus dilution 1/1600): 199 mg
Number of leukemic mice ([2]; virus dilution 1/1600): 0/5
Mean weight of the spleen ([2]; virus dilution 1/3200): 220 mg
Number of leukemic mice ([2]; virus dilution 1/3200): 1/5
Death interval (mice) (leukemia L1210 [3]; 10^5 cells, 10 mg/kg, day +3): 12-31
ILS % (leukemia L1210 [3]; 10^5 cells, 10 mg/kg, day +3): 49.4%
MST (leukemia L1210 [3]; 10^5 cells, 10 mg/kg, day +3): 17.3
Death interval (mice) (leukemia L1210 [3]; 10^5 cells, 10 mg/kg, day +4): 16-27
ILS % (leukemia L1210 [3]; 10^5 cells, 10 mg/kg, day +4): 92.3%
MST (leukemia L1210 [3]; 10^5 cells, 10 mg/kg, day +4): 20
Death interval (mice) (leukemia L1210 [3]; 10^5 cells, 15 mg/kg, day +1): 17-43
ILS % (leukemia L1210 [3]; 10^5 cells, 15 mg/kg, day +1): 128.6%
MST (leukemia L1210 [3]; 10^5 cells, 15 mg/kg, day +1): 24
Death interval (mice) (leukemia L1210 [3]; 10^5 cells, 20 mg/kg, day +3): 10-30
ILS % (leukemia L1210 [3]; 10^5 cells, 20 mg/kg, day +3): 42.7%
MST (leukemia L1210 [3]; 10^5 cells, 20 mg/kg, day +3): 16.5
Death interval (mice) (leukemia L1210 [3]; 10^5 cells, 20 mg/kg, day +4): 17-23
ILS % (leukemia L1210 [3]; 10^5 cells, 20 mg/kg, day +4): 94.2%
MST (leukemia L1210 [3]; 10^5 cells, 20 mg/kg, day +4): 20.2
Surviving mice (leukemia L1210 [3]; experimental group of six mice, 15 mg/kg, day +1): 4 mice
Death interval (mice) (leukemia L1210 [3]; [7]): 19-35 and 20-32
MST (leukemia L1210 [3]; [7]): 25 and 26
Death interval (mice) (leukemia L1210 [3]; [8]): 20-31
ILS % (leukemia L1210 [3]; [8]): 102.4%
MST (leukemia L1210 [3]; [8]): 25.5
Surviving mice (leukemia L1210 [3]; [8]): 4 mice
increase in the life span (ILS) (leukemia L1210 [3]; text: dose closest to the toxic dose, same conditions): 134%
activity by day of inoculation (leukemia L1210 [4]): more active one day after inoculation of the cells
Death interval (leukemia L1210 [4]; D+1): 15-29
ILS % (leukemia L1210 [4]; D+1): 82.6%
Mean survival time (leukemia L1210 [4]; D+1): 21
Death interval (leukemia L1210 [4]; D+2): 15-35
ILS % (leukemia L1210 [4]; D+2): 88.7%
Mean survival time (leukemia L1210 [4]; D+2): 21.7
Death interval (leukemia L1210 [4]; D+3): 13-25
ILS % (leukemia L1210 [4]; D+3): 56.5%
Mean survival time (leukemia L1210 [4]; D+3): 18
Death interval (leukemia L1210 [4]; D+4): 14-20
ILS % (leukemia L1210 [4]; D+4): 39.1%
Mean survival time (leukemia L1210 [4]; D+4): 16
Death interval (leukemia L1210 [4]; Do(+3h)): 16-25
ILS % (leukemia L1210 [4]; Do(+3h)): 80%
Mean survival time (leukemia L1210 [4]; Do(+3h)): 20.7
Surviving mice (leukemia L1210 [4]; D+1): 2 mice
Surviving mice (leukemia L1210 [4]; D+2): 0 mice
Surviving mice (leukemia L1210 [4]; D+3): 0 mice
Surviving mice (leukemia L1210 [4]; D+4): 0 mice
Surviving mice (leukemia L1210 [4]; Do(+3h)): 0 mice
